Source: patent publication US20230230249A1, “DIGITAL ANTIMICROBIAL SUSCEPTIBILITY TESTING” (ARIZONA BOARD OF REGENTS ON BEHALF OF ARIZONA STATE …, priority 2020, published 2023)

Tested on: E. coli ATCC 25922
Assay: Digital AST by LVSi single-cell division tracking, pure E. coli samples
Assay type: cell-based
Conditions: for bacterial cell growth (normalized cumulative division events) versus control: different batches of E. coli; for average counting number of cell spots during 5-min video: 37° C., stationary phase cells
Description: E. coli ATCC 25922 were purchased from American Type Culture Collection (ATCC) and stored at −80° C. in 5% glycerol. Antibiotics, including ciprofloxacin and ampicillin were purchased from Sigma-Aldrich. The antibiotic powders were stored in the dark at 2 to 8° C. Frozen E. coli strains were thawed, and 50 μL of the cells were cultured in 5 mL of Luria-Bertani (LB) medium (per liter: 10 g peptone 140, 5 g yeast extract, and 5 g sodium chloride) at 37° C. and 150 rpm for 15 h. Then the overnight cultured E. coli was inoculated into LB broth directly. After dilution to appropriate cell concentrations, antibiotics were added to the E. coli suspensions.
The dual channel LVSi system depicted in FIG. 1A was used, with two 800 mW, 780 nm infrared (IR) LEDs (M780LP1, Thorlabs, Inc., USA), each with collimating and focusing lenses and a central blocking aperture to focus a ring-shaped illumination through the sample or the reference cuvettes. Wide-view and deep field depth scattering images were recorded by two CMOS cameras (BFS-U3-16S2M-CS, Point Grey Research Inc., Canada) at 10 fps through two 2×variable zoom lens (NAVITAR 12×, Navitar, USA), for the sample and reference cuvettes, respectively. The image volume was determined by the viewing size and focal depth of the optics. For these experiments, the viewing area of 2.5 mm×1.9 mm×1.0 mm was equivalent to 4.8 μL at 2.0× magnifying power. The imaging system was enclosed in a thermally isolated housing with a controlled temperature (37° C.).
Individual cells recorded by LVSi are resolved as bright spots. Before division tracking, each spot was detected with a Laplacian of Gaussian (LoG) filter with defined radius and threshold. Then, the spots from adjacent time frames were connected with a Karman filter for directional linking. So each bright spot became a single-cell trajectory. To track the division events, the newly appeared cell trajectories (those from the image edges excluded) were first filtered out as the child trajectory candidates, and for each child trajectory candidate, the nearby old trajectories (appeared before the child trajectory candidate) were checked. If there was a close-by old trajectory split at the start time of the child trajectory candidate, a potential division event was tracked. To filter out the merge/crossing induced splitting, the spots merging events were also checked and were filtered out from the potential division events. Finally, an intensity filter was used to evaluate the remaining division events, ensuring the parent cell intensity is about the summation of the two divided child ones, and the two child ones are similar in size.
To validate that the tracked division events were due to real cell growth, rather than an artifact of the particle merging or crossing, a division over-counting calibration test was designed. To rule out the real division events, the E. coli cells were heated at ˜65° C. for 15 min. Then, each 5-min video of the heated E. coli cells with different concentrations (2.0×10^4˜2.0×10^5 CFU/mL, corresponding to 100-1000 spots in image view) were analyzed for single-cell division tracking. Each concentration test was repeated three times. Then, the division over-counting calibration curve was extracted from the tracking results. The division over-counting is less an issue when the cell number is below 500, corresponding to the bacterial concentration of about 1.0×10^5 CFU/mL. When the cell number is above 500, some miss-counting of division events occurred. To rule out the cell density induced division over-counting, the final division events in all clinical samples were calibrated by subtracting the cell density associated over counted division events.
The statistical error of the division tracking was estimated by the mentioned division over-counting calibration. […]

SMILES	bacterial cell growth (normalized cumulative division events) versus control (16 μg/mL ampicillin, 60 min (FIG. 5C, 5D))	cumulative division events growth curve compared with control (2 μg/mL ciprofloxacin, 60 min (FIG. 4F))	bacterial cell growth (normalized cumulative division events) versus control (2 μg/mL ciprofloxacin, 60 min (FIG. 5A, 5B))	average counting number of cell spots during 5-min video (2 μg/mL ciprofloxacin, snapshot at 5 min)	average counting number of cell spots during 5-min video (2 μg/mL ciprofloxacin, snapshot at 30 min)	average counting number of cell spots during 5-min video (2 μg/mL ciprofloxacin, snapshot at 60 min)
CC1(C)S[C@@H]2[C@H](NC(=O)[C@H](N)c3ccccc3)C(=O)N2[C@H]1C(=O)O [ampicillin]	clear inhibition in bacterial cell growth	–	–	–	–	–
O=C(O)c1cn(C2CC2)c2cc(N3CCNCC3)c(F)cc2c1=O [ciprofloxacin]	–	no obvious increases in the growth curve	clear inhibition in bacterial cell growth	118±8	114±5	106±4
